# Assay results published in patent US11679098B2, “Methods for treating diseases” (UNIVERSITY OF LOUISVILLE RESEARCH FOUNDATION, INC., priority 2018, dated 2023).
# Columns and labels:
# [1] = tested on: MGST1 knockout A549 cells; test: Relative proliferation of MGST1 knockout A549 cells (CRISPR/Cas9); assay type: cell-based, human; details: two different gRNA sequences, 72 h
# Experimental: FIG. 3: To assess the role of MGST1 in XB05 activity, we engineered MGST1 knockout cells using CRISPR/Cas9 technology. Western blot analysis indicating the knockout of MGST1 in A549 cells.
# (§1) FIG. 4: To assess the role of MGST1 in XB05 activity, we engineered MGST1 knockout cells using CRISPR/Cas9 technology. Effect of XB05 treatment (72 h) on the relative proliferation of two independent clones of A549 cancer cells that express MGST1 (non-transfected, non-targeting gRNA) or where MGST1 was knocked out (gRNA #2, gRNA 3).
# Cell proliferation & viability assays. Anti-proliferative activity of XB05 and other compounds was evaluated using a previously published 3-(4,5-dimethylthiazol-2-yl)-2,5-diphenyltetrazolium bromide (MTT) assay protocol (MORGAN “Tetrazolium (MTT) assay for cellular viability and activity” Methods Mol Biol. (1998) Vol. 79, pp. 179-83, which is herein incorporated by reference in its entirety, BATES et al. “Antiproliferative activity of G-rich oligonucleotides correlates with protein binding” J Biol Chem. (1999) Vol. 274, No. 37, pp. 26369-26377, which is herein incorporated by reference in its entirety, SALIPUR et al. “A novel small molecule that induces oxidative stress and selectively kills malignant cells” Free Radic Biol Med. (2014) Vol. 68, pp. 110-121, which is herein incorporated by reference in its entirety). […]
# [2] = tested on: A549 (lung adenocarcinoma); test: MTT antiproliferative assay in A549 cells; assay type: cell-based, human
# Experimental: (§2) Cell culture. A549 and IMR-90 cells were purchased from the American Type Culture Collection (ATCC), while HOP-62 and HOP-92 were obtained from the cell line repository at the National Cancer Institute. Cells were grown in the appropriate medium supplemented with 10% fetal bovine serum (FBS, Life Technologies, Grand Island, N.Y.), 62.5 μg/mL penicillin and 100 μg/mL streptomycin (Life Technologies) in a humidified incubator at 37° C. with 5% CO2. The media were as follows: Dulbecco's modified Eagle's medium (DMEM, Life Technologies) for A549 cells; RPMI 1640 (Life Technologies) for HOP-62 and HOP-92 cells; Eagle's minimal essential medium (EMEM) with Eagle's balanced salt solution (EBSS), 2 mM L-glutamine, 1500 mg/L sodium bicarbonate (Lonza, Walkersville, Md.), supplemented with 1 mM sodium pyruvate (Life Technologies) and non-essential amino acids (Life Technologies) for IMR-90 cells. Cell lines were verified with a 9-marker short tandem repeat profile and inter-species contamination test (Idexx BioResearch), although A549 cells utilized in proliferation assays were missing the Y allele at the amelogenin marker.
# (§3) Cell proliferation & viability assays. Anti-proliferative activity of XB05 and other compounds was evaluated using a previously published 3-(4,5-dimethylthiazol-2-yl)-2,5-diphenyltetrazolium bromide (MTT) assay protocol (MORGAN “Tetrazolium (MTT) assay for cellular viability and activity” Methods Mol Biol. (1998) Vol. 79, pp. 179-83, which is herein incorporated by reference in its entirety, BATES et al. “Antiproliferative activity of G-rich oligonucleotides correlates with protein binding” J Biol Chem. (1999) Vol. 274, No. 37, pp. 26369-26377, which is herein incorporated by reference in its entirety, SALIPUR et al. “A novel small molecule that induces oxidative stress and selectively kills malignant cells” Free Radic Biol Med. (2014) Vol. 68, pp. 110-121, which is herein incorporated by reference in its entirety). Cells were seeded in quadruplicate wells in 96-well plates and allowed to adhere overnight. […] After 72 hrs of treatment with XB05 or other compounds, MTT (Sigma, St. Louis, Mo.) was added for 4 hrs prior to cell lysis. Each assay was performed in at least triplicate.
# (§4) XB05 and related compounds were assessed for anti-proliferative activity in malignant (A549) and non-malignant (IMR-90) cells (Table A2).
# [3] = tested on: NCI60 human tumor cell line panel; test: NCI60 human tumor cell line screen; assay type: cell-based
# From the text: FIG. 1: Screens to Identify the role of Microsomal glutathione S-transferase 1 (MGST1). Results from the NCI's 60 human tumor cell lines screen. The COMPARE algorithm was used to probe microarray results from the cell lines to identify gene expression that correlated with this unusual pattern of growth inhibition.
# NCI60 human tumor cell line screen of XB05 activity. To further investigate the initial observations of XB05's anti-cancer activities, XB05 was submitted to the National Cancer Institute's Developmental Therapeutics Program for testing with the NCI60 human tumor cell line panel. This panel consists of 60 well-characterized human tumor cell lines (SHOEMAKER “The NCI60 human tumour cell line anticancer drug screen” Nat Rev Cancer (2006) Vol. 6, No. 10, Vol. 813-823, which is herein incorporated by reference in its entirety).
# [4] = DTNB assay for reactivity with free thiols, cysteine; assay type: physicochemical
# Experimental: (§5) Dithiobis-2-nitrobenzioc acid (DTNB) assay for free sulfhydryls. Similar to previously described in SALIPUR et al. “A novel small molecule that induces oxidative stress and selectively kills malignant cells” Free Radic Biol Med. (2014) Vol. 68, pp. 110-121, which is herein incorporated by reference in its entirety, reactivity with free sulfhydryls was evaluated using DTNB (Sigma). Briefly, a 4× solution of DTNB (6 mM DTNB, 50 mM sodium acetate in 100 mM Tris-HCl, pH 8.0) and solutions of 0.5 mM cysteine (Sigma) and reduced glutathione (GSH, Sigma) in 100 mM Tris-HCl, pH 8.0 were freshly prepared. The 200 mM stock solutions of XB05, other compounds, diethylmaleate (Sigma), and maleimide (Sigma) were prepared in 100% DMSO, and subsequently diluted to 2× working solutions in 100 mM Tris-HCl, pH 8.0. Thiol compounds (final concentration 0.25 mM) and thiol-reactive compounds (final concentrations 0.04-5 mM) or vehicle were added in duplicate to a 96-well plate and incubated for 30 min at 37° C. DTNB solution was then added to each well (final concentration 400 μM), and incubated at room temperature for an additional 5 min. Absorbance at 412 nm was determined by a Biotek HT Synergy plate reader (Winooski, Vt.).
# [5] = DTNB assay for reactivity with free thiols, reduced glutathione; assay type: physicochemical
# Experimental: as §5
# [6] = tested on: IMR-90 (non-malignant lung fibroblasts); test: MTT antiproliferative assay in IMR-90 cells; assay type: cell-based; details: Homo sapiens, 72 hrs treatment, read-out: MTT Antiproliferative Activity - IC50 (μM) IMR0 (non-malignant lung fibroblasts)
# Experimental: as §2, §3, §4
# [7] = tested on: A549 cells (non-transfected, non-targeting gRNA); test: Relative proliferation of A549 cells that express MGST1 (non-transfected, non-targeting gRNA); assay type: cell-based, human; details: 72 h, non-transfected A549 and non-targeting gRNA
# Experimental: as §1
# Cell proliferation & viability assays. Anti-proliferative activity of XB05 and other compounds was evaluated using a previously published 3-(4,5-dimethylthiazol-2-yl)-2,5-diphenyltetrazolium bromide (MTT) assay protocol (MORGAN “Tetrazolium (MTT) assay for cellular viability and activity” Methods Mol Biol. (1998) Vol. 79, pp. 179-83, which is herein incorporated by reference in its entirety, BATES et al. “Antiproliferative activity of G-rich oligonucleotides correlates with protein binding” J Biol Chem. (1999) Vol. 274, No. 37, pp. 26369-26377, which is herein incorporated by reference in its entirety, SALIPUR et al. “A novel small molecule that induces oxidative stress and selectively kills malignant cells” Free Radic Biol Med. (2014) Vol. 68, pp. 110-121, which is herein incorporated by reference in its entirety). Cells were seeded in quadruplicate wells in 96-well plates and allowed to adhere overnight. […] After 72 hrs of treatment with XB05 or other compounds, MTT (Sigma, St. Louis, Mo.) was added for 4 hrs prior to cell lysis. […]
structure (smiles),measurement,setting,value
CCCCCC(O)C#CC(F)(F)Br (stereo not drawn) [XB05],effect on cell proliferation after knockout of MGST1,[1],reversed
same,IC30 value in A549 cells,[2],1000 nM
same,IC50,"[2]; Homo sapiens, 72 hrs treatment, MTT",0.4 µM
same,activity in the NCI60 screen,[3]; 60 human tumor cell lines,activity against about one-third of cancer cells
same,fold less sensitive (other cell lines in the screen),[3]; less active cell lines versus sensitive cell lines,up to 1000 fold
same,DTNB Reactivity with Thiols - DTNB assay with Cysteine,"[4]; 0.25 mM cysteine, 30 min at 37° C., pH 8.0",ND (DTNB ND - not detected at concentrations up to 2.5 mM)
same,reactivity with thiol of cysteine,[4]; FIG. 5,not reactive
same,DTNB Reactivity with Thiols - DTNB assay with Glutathione,"[5]; 0.25 mM reduced glutathione, 30 min at 37° C., pH 8.0",ND (DTNB ND - not detected at concentrations up to 2.5 mM)
same,reactivity with thiol of glutathione,[5]; FIG. 6,not reactive
same,IC50,[6],2.5 µM
same,"cell proliferation, % of vehicle",[7]; 1 μM,approximately 20%
same,"cell proliferation, % of vehicle",[7]; 2 μM,~5%
